Results from PMC12266748, “A Xanthine Derivative With Novel Heat Shock Protein 90‐Alpha Inhibitory and Senolytic Properties” (Aging Cell, 2025).

Assays:
[1] = Phase I stability in mouse liver microsomes; assay type: in vitro ADME; settings: 1 µM, 0.5 mg/mL microsomes
Experimental: (§1) APHAD S.r.l (Buccinasco, MI, Italy) performed all evaluations. Detailed protocols are reported in the extended methods section.
Phase I stability in human and mouse liver microsomes. The metabolic stability of K4 and K5 was evaluated after incubation with mouse and human liver microsomes. Briefly, the 2 compounds were dissolved in DMSO and pre-incubated, at the final concentration of 1µM, for 10 min at 37°C in potassium phosphate buffer 50 mM, pH 7.4, 3 mM MgCl2, with mouse and human liver microsomes (Sigma) at the final concentration of 0.5 mg/mL. After the pre-incubation period, reactions were started by adding the cofactors mixture (NADP, Glc6P, Glc6P-DH in 2% Sodium bicarbonate); samples were taken at time 0, 10, 20, 30, and 60 min, and added to ACN with Verapamil 0.1 µM as Internal Standard (IS) to stop the reaction. After centrifugation, the supernatants were analyzed using LC-MS/MS. A control sample without cofactors was added to check the stability of test compounds in the matrix after 60 min. 7-Ethoxycoumarin (7-EC) and propranolol were added as positive reference standards. Samples were analyzed on Acquity UPLC (Waters) coupled with an API 3200 Triple Quadrupole ABSciex. […] The percent of the area of the test compound remaining at the various incubation times was calculated based on the area of the compound at time 0 min. […]

[2] = Bidirectional permeability in Caco-2 cells; assay type: in vitro ADME; settings: 5 µM, HBSS pH 7.4, 2 hours
Experimental: as §1
Permeability in Caco-2 cells. To evaluate the bidirectional permeability of the 2 compounds, Caco-2 cells (ECACC, ReadyCells, Barcellona, Spain), considered a reference cellular line for in vitro preclinical evaluation of oral dosage products, were used. These cells are cultured in monolayers, which become differentiated polarized epithelial cells after 21 days, expressing tight junctions, microvilli, intracellular metabolic enzymes, and transmembrane transporters such as BCRP, MDR1, and MRP2 (an artificial model equivalent to the intestinal epithelium). […] At the end of the experiment, the integrity of the cellular junction was measured by incubating the Lucifer yellow (LY) at the apical side (at the concentration of 0.02 mg/mL in MEM medium) and with MEM medium in the basolateral compartment for 1 hour at 37°C. At the end of incubation, fluorescence was read on a fluorimeter at λ 430-538nm. Samples were analyzed on a UPLC Acquity (Waters) coupled with an API 3200 Triple Quadrupole AB Sciex. […] The apparent permeability (Papp), the efflux ratio (ER), and the Recovery (R) were calculated to allow for estimation of metabolism and non-specific binding. […] Data are expressed as mean of n=2 (± SD).

TRAP1 = target: T1, TRAP1 (Homo sapiens, UniProt Q12931); assay: Cellular thermal shift assay (CETSA) on cellular lysates, TRAP1; settings: 46°C, compound 0.5 mM
T1 sequence (Q12931 60-704): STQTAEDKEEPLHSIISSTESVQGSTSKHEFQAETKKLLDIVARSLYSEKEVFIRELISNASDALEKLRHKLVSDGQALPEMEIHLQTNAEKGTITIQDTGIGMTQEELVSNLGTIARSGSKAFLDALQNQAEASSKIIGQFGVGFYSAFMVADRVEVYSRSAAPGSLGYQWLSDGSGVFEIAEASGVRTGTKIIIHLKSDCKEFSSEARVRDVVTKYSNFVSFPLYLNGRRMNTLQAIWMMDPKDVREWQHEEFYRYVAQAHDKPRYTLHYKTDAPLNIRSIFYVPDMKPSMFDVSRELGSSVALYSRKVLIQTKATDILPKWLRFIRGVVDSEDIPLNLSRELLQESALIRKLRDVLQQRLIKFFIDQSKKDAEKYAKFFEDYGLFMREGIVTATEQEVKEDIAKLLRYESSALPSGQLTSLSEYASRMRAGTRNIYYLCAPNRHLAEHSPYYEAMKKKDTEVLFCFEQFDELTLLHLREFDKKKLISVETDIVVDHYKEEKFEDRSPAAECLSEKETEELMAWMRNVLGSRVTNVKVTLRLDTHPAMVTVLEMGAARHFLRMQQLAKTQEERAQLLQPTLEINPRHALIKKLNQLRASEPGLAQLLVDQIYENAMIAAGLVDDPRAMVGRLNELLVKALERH
Experimental: Cellular Thermal Shift Assay (CETSA). […] Briefly, the cellular extract was lysed in RIPA buffer (10 mM Tris-HCl pH 7.4, 250 mM NaCl, 1% NP40/IGEPAL, 1% DOC, 0.01% SDS, 0.01% Glycerol, supplemented with protease/phosphatase inhibitor, PI/PhI mix and 2 mM DTT) and protein concentration was determined by a BCA kit (Pierce, Life Technologies, TFS, Waltham, MA, USA). Samples were homogenized by 3 cycles of freeze-thawing using liquid nitrogen and centrifuged at 13000 rpm at 4 °C for 30 min to separate the soluble fraction from the debris.
Following the supplier's recommendations, samples were loaded into the proper cartridge (12- 230 kDa Wes/Jess Separation Modules, ProteinSimple, Biotechne, Minneapolis, MN, USA). HSP90α (1:50, MsMAb, Abcam), HSP90β (1:50, RbMAb, Abcam), GRP94 (1:50, RbMAb, Abcam), TRAP1 (1:50, MsMAb, Abcam), α-Tubulin (1:500, MsMAb, Abcam), and β-Actin (1:500, RbMAb, Abcam) were used as primary antibodies. Secondary antibodies were Anti-Mouse Secondary HRP and Anti-Rabbit Secondary HRP (ProteinSimple, Biotechne, Minneapolis, MN, USA).

Row | Compound | clearance in mouse microsomes [1] | Caco-2 bidirectional permeability [2] | stabilization of TRAP1 in CETSA (TRAP1)
1 | Cc1ccccc1-n1c(=O)n(Cc2ccccc2)c(=O)c2[nH]cnc21 [Compound K5, 1-benzyl-3-(2-methylphenyl)-7H-purine-2,6-dione] | medium clearance | excellent permeability in both directions | did not observe a stabilization
2 | CC(C)(C)S(=O)(=O)C/C(N)=N/OS(=O)(=O)c1ccc(F)cc1F [Compound K4, (Z)-N'-[(2,4-difluorobenzenesulfonyl)oxy]-2-(2-methylpropane-2-sulfonyl)ethanimidamide] | medium clearance | no K4 signal was detected | did not observe a stabilization
